The values below come from ChEMBL document CHEMBL1139379, “Design, structure-activity relationships and in vivo characterization of 4-amino-3-benzimidazol-2-ylhydroquinolin-2-ones: a novel class of receptor tyrosine kinase inhibitors” (J Med Chem, 2009).

Chain of Fibroblast growth factor receptor 1 (P11362 whole entry): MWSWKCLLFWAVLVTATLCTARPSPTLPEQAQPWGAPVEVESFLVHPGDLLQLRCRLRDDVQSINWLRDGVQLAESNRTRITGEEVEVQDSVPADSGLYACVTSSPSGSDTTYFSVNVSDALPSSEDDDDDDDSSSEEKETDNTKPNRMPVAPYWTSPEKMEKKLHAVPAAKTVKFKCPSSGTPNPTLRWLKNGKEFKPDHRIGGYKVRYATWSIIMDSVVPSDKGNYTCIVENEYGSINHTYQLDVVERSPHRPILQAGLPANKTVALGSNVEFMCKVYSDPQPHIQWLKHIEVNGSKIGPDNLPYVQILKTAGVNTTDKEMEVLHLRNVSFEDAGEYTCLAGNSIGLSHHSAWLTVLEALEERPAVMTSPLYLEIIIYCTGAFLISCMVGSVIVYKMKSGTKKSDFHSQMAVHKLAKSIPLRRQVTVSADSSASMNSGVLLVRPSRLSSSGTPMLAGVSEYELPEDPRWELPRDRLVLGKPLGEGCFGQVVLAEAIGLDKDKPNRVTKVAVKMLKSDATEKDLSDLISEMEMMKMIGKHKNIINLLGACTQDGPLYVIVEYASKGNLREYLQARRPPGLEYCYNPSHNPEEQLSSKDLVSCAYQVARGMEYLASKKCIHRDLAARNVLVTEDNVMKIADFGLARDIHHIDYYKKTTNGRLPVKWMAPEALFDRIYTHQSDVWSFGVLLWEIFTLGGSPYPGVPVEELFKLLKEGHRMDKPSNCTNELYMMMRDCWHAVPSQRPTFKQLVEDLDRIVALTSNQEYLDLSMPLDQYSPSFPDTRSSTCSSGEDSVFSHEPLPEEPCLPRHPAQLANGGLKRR

One assay concerns the target Fibroblast growth factor receptor 1 (Homo sapiens, UniProt P11362). The assay can be described thus: Inhibition of human recombinant FGFR1.
Settings: not given
The IC50 is the concentration at which inhibition is half-maximal. In the case of `O=c1[nH]c2ccccc2cc1-c1nc2ccccc2[nH]1`, the IC50 came to 390 nM.
Turning to `Nc1c(-c2nc3cc(N4CCOCC4)ccc3[nH]2)c(=O)[nH]c2ccccc12`, the IC50 amounted to 30 nM.
On to `CN1CCN(c2ccc3[nH]c(-c4c(N)c5ccccc5[nH]c4=O)nc3c2)CC1`, for which the IC50 was 9 nM.
On the same count and under the same terms, to `O=c1[nH]c2ccccc2c(O)c1-c1nc2ccccc2[nH]1` belongs 90 nM; to `Nc1c(-c2nc3ccccc3[nH]2)c(=O)[nH]c2ccccc12`, 30 nM; to `CNc1ccc2c(N)c(-c3nc4ccc(N5CCN(C)CC5)cc4[nH]3)c(=O)[nH]c2c1`, 370 nM.
Same read-out and setting: to `CN1CCN(c2ccc3[nH]c(=O)c(-c4nc5ccccc5[nH]4)c(N)c3c2)CC1` belongs 4100 nM.
On the same count and under the same terms, the figure for `CN1CCN(c2ccc3[nH]c(-c4c(N)c5cc(N(C)C)ccc5[nH]c4=O)nc3c2)CC1` is 83 nM; for `CN1CCN(c2ccc3[nH]c(-c4c(N)c5cc(NC(=O)c6ccccc6)ccc5[nH]c4=O)nc3c2)CC1` it is 900 nM.
With `CN1CCN(c2ccc3nc(-c4c(N)c5cc(NCc6ccccc6)ccc5[nH]c4=O)[nH]c3c2)CC1`, the IC50 came to 8 nM.
Same read-out and setting: the figure for `CN1CCCC(Oc2cccc3[nH]c(=O)c(-c4nc5ccccc5[nH]4)c(N)c23)C1` (configuration not stated) is 1 nM.
As for `CN1CCN(c2ccc3[nH]c(-c4c(N)c5c(Cl)cccc5[nH]c4=O)nc3c2)CC1`, the IC50 was determined as 2 nM.
In the case of `Cc1cccc2[nH]c(=O)c(-c3nc4ccc(N5CCN(C)CC5)cc4[nH]3)c(N)c12`, the IC50 turned out to be 3 nM.
Still for that read-out and setting: the figure for `CN1CCN(Cc2ccc3[nH]c(-c4c(N)c5ccccc5[nH]c4=O)nc3c2)CC1` is 9 nM; for `CN(C)CC(=O)N(C)c1ccc2[nH]c(-c3c(N)c4ccccc4[nH]c3=O)nc2c1` it is 3 nM; for `CN(C)c1c(-c2nc3ccccc3[nH]2)c(=O)[nH]c2ccccc12` it is 390 nM.
Same read-out and setting: the figure for `CCC1CCN(C)C(Nc2c(-c3nc4ccccc4[nH]3)c(=O)[nH]c3ccccc23)C1` (configuration not stated) is 190 nM; for `CN(C)[C@H]1CCN(c2ccc3[nH]c(-c4c(N)c5ccccc5[nH]c4=O)nc3c2)C1` it is 20 nM.
On the same count and under the same terms, to `Cn1c(-c2c(O)c3ccccc3[nH]c2=O)nc2ccccc21` belongs 7900 nM.

The target of a further assay is Platelet-derived growth factor receptor beta (Homo sapiens, UniProt P09619). The assay can be described thus: Inhibition of human recombinant PDGFRbeta.
Chain of Platelet-derived growth factor receptor beta (P09619 whole entry): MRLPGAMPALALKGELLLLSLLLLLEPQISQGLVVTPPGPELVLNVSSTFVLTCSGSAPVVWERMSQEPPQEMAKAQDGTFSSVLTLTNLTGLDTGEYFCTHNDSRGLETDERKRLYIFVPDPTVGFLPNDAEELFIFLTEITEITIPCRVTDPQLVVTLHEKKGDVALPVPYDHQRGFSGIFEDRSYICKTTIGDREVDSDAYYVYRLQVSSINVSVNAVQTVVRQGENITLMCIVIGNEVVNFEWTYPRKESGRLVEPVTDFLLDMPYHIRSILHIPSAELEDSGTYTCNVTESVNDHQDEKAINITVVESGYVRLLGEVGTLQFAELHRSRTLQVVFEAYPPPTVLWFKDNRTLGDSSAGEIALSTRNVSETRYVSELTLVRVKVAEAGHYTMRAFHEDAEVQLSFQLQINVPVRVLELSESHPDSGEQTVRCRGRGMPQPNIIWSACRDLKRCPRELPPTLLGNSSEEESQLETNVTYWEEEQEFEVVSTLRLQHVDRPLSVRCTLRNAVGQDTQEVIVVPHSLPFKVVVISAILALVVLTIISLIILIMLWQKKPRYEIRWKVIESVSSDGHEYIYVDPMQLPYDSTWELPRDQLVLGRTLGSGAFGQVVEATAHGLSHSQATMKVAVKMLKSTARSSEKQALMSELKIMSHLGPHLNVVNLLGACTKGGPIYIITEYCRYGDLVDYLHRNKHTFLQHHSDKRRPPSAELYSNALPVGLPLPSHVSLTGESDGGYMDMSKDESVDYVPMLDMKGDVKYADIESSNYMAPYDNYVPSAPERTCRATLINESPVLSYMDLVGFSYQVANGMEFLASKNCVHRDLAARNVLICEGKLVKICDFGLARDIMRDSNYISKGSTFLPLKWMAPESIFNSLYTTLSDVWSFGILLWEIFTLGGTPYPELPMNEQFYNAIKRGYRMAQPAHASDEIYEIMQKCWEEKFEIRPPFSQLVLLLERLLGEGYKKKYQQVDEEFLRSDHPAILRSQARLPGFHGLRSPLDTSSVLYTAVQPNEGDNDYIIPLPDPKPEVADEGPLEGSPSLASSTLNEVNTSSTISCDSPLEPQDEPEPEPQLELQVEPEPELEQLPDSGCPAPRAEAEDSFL
Settings: not given
`O=c1[nH]c2ccccc2cc1-c1nc2ccccc2[nH]1`: the IC50 came out at 70 nM.
With `Nc1c(-c2nc3cc(N4CCOCC4)ccc3[nH]2)c(=O)[nH]c2ccccc12`, the IC50 came out at 5 nM.
On the same count and under the same terms, to `CN1CCN(c2ccc3[nH]c(-c4c(N)c5ccccc5[nH]c4=O)nc3c2)CC1` belongs 2 nM.
For the compound `O=c1[nH]c2ccccc2c(O)c1-c1nc2ccccc2[nH]1`, the IC50 amounted to 20 nM.
Still for that read-out and setting: the figure for `Nc1c(-c2nc3ccccc3[nH]2)c(=O)[nH]c2ccccc12` is 10 nM; for `CNc1ccc2c(N)c(-c3nc4ccc(N5CCN(C)CC5)cc4[nH]3)c(=O)[nH]c2c1` it is 9 nM; for `CN1CCN(c2ccc3[nH]c(=O)c(-c4nc5ccccc5[nH]4)c(N)c3c2)CC1` it is 130 nM.
For the compound `CN1CCN(c2ccc3[nH]c(-c4c(N)c5cc(N(C)C)ccc5[nH]c4=O)nc3c2)CC1`, the IC50 was 7 nM.
On the same count and under the same terms, the figure for `CN1CCN(c2ccc3[nH]c(-c4c(N)c5cc(NC(=O)c6ccccc6)ccc5[nH]c4=O)nc3c2)CC1` is 39 nM; for `CN1CCN(c2ccc3nc(-c4c(N)c5cc(NCc6ccccc6)ccc5[nH]c4=O)[nH]c3c2)CC1` it is 0.6 nM.
Still for that read-out and setting: the figure for `CN1CCCC(Oc2cccc3[nH]c(=O)c(-c4nc5ccccc5[nH]4)c(N)c23)C1` (configuration not stated) is 0.1 nM.
In the case of `CN1CCN(c2ccc3[nH]c(-c4c(N)c5c(Cl)cccc5[nH]c4=O)nc3c2)CC1`, the IC50 is 0.3 nM.
Same read-out and setting: to `Cc1cccc2[nH]c(=O)c(-c3nc4ccc(N5CCN(C)CC5)cc4[nH]3)c(N)c12` belongs 0.7 nM; to `CN1CCN(Cc2ccc3[nH]c(-c4c(N)c5ccccc5[nH]c4=O)nc3c2)CC1`, 2 nM.
Regarding `CN(C)CC(=O)N(C)c1ccc2[nH]c(-c3c(N)c4ccccc4[nH]c3=O)nc2c1`, the IC50 was determined as 1 nM.
The same measure, in the same setting: the figure for `CN(C)c1c(-c2nc3ccccc3[nH]2)c(=O)[nH]c2ccccc12` is 70 nM; for `CCC1CCN(C)C(Nc2c(-c3nc4ccccc4[nH]3)c(=O)[nH]c3ccccc23)C1` (configuration not stated) it is 0.2 nM.
As for `CN(C)[C@H]1CCN(c2ccc3[nH]c(-c4c(N)c5ccccc5[nH]c4=O)nc3c2)C1`, the IC50 worked out at 4 nM.
In the case of `Cn1c(-c2c(O)c3ccccc3[nH]c2=O)nc2ccccc21`, the IC50 turned out to be 1100 nM.

In another assay the target is Vascular endothelial growth factor receptor 2 (Homo sapiens, UniProt P35968).
Chain of Vascular endothelial growth factor receptor 2 (P35968 whole entry): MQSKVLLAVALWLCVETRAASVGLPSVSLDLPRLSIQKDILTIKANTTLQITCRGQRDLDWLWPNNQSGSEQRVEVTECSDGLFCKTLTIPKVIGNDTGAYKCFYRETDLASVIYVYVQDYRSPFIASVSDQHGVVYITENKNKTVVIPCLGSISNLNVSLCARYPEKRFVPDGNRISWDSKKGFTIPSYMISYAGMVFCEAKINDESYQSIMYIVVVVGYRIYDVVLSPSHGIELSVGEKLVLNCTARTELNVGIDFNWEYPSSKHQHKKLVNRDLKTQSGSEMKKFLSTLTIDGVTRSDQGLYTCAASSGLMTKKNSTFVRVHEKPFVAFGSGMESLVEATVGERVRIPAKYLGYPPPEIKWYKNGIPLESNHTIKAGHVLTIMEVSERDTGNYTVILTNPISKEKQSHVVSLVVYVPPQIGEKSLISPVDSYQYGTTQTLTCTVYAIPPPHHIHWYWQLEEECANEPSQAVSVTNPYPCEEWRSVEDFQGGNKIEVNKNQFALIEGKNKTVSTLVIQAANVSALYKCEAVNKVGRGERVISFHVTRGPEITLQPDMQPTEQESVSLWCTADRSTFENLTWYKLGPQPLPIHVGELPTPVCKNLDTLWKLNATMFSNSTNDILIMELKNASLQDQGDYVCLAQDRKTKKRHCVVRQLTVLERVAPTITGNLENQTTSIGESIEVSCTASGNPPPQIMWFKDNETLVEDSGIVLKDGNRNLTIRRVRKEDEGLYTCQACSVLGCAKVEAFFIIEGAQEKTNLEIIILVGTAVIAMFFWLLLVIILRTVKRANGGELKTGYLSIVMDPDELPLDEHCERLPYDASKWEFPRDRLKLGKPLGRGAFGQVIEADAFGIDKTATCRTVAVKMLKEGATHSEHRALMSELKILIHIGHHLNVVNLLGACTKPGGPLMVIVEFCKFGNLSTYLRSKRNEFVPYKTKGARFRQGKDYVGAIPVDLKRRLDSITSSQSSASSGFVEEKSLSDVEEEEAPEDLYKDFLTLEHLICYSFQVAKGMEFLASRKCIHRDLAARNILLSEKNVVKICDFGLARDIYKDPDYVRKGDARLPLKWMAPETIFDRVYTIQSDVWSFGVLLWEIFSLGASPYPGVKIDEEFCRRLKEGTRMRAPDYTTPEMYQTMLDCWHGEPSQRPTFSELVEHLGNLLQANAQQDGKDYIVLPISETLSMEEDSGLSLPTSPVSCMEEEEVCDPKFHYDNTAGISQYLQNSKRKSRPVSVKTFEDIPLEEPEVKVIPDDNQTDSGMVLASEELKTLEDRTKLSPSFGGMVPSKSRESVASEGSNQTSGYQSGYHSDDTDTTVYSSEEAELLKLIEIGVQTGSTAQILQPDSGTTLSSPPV
Settings: not given
Compound `O=c1[nH]c2ccccc2cc1-c1nc2ccccc2[nH]1` gave an IC50 of 1700 nM.
Still for that read-out and setting: the figure for `Nc1c(-c2nc3cc(N4CCOCC4)ccc3[nH]2)c(=O)[nH]c2ccccc12` is 57 nM; for `CN1CCN(c2ccc3[nH]c(-c4c(N)c5ccccc5[nH]c4=O)nc3c2)CC1` it is 42 nM.
The compound `O=c1[nH]c2ccccc2c(O)c1-c1nc2ccccc2[nH]1` had an IC50 of 240 nM.
Still for that read-out and setting: to `Nc1c(-c2nc3ccccc3[nH]2)c(=O)[nH]c2ccccc12` belongs 58 nM.
Compound `CNc1ccc2c(N)c(-c3nc4ccc(N5CCN(C)CC5)cc4[nH]3)c(=O)[nH]c2c1` displayed an IC50 of 1000 nM.
Same read-out and setting: to `CN1CCN(c2ccc3[nH]c(=O)c(-c4nc5ccccc5[nH]4)c(N)c3c2)CC1` belongs 6500 nM; to `CN1CCN(c2ccc3[nH]c(-c4c(N)c5cc(N(C)C)ccc5[nH]c4=O)nc3c2)CC1`, 160 nM.
`CN1CCN(c2ccc3[nH]c(-c4c(N)c5cc(NC(=O)c6ccccc6)ccc5[nH]c4=O)nc3c2)CC1`: inhibition was half-maximal at 980 nM (IC50).
In the case of `CN1CCN(c2ccc3nc(-c4c(N)c5cc(NCc6ccccc6)ccc5[nH]c4=O)[nH]c3c2)CC1`, it took 21 nM to reach half-maximal inhibition (IC50).
`CN1CCCC(Oc2cccc3[nH]c(=O)c(-c4nc5ccccc5[nH]4)c(N)c23)C1` (configuration not stated) registered an IC50 of 5 nM.
On the same count and under the same terms, to `CN1CCN(c2ccc3[nH]c(-c4c(N)c5c(Cl)cccc5[nH]c4=O)nc3c2)CC1` belongs 14 nM; to `Cc1cccc2[nH]c(=O)c(-c3nc4ccc(N5CCN(C)CC5)cc4[nH]3)c(N)c12`, 12 nM.
For `CN(C)CC(=O)N(C)c1ccc2[nH]c(-c3c(N)c4ccccc4[nH]c3=O)nc2c1`, the half-inhibitory concentration (IC50) worked out at 29 nM.
The same measure, in the same setting: to `CN(C)c1c(-c2nc3ccccc3[nH]2)c(=O)[nH]c2ccccc12` belongs 860 nM; to `CCC1CCN(C)C(Nc2c(-c3nc4ccccc4[nH]3)c(=O)[nH]c3ccccc23)C1` (configuration not stated), 170 nM.
For the compound `CN(C)[C@H]1CCN(c2ccc3[nH]c(-c4c(N)c5ccccc5[nH]c4=O)nc3c2)C1`, the IC50 came to 60 nM.
`Cn1c(-c2c(O)c3ccccc3[nH]c2=O)nc2ccccc21` had an IC50 greater than 25000 nM.

Tested on in another assay: not listed separately
Nature of the assay: Inhibition of VEGF-mediated proliferation of HMVEC after 72 hrs. The assay is classed as functional, cell-based. Particulars: Homo sapiens.
As a reminder, the EC50 is the concentration at which the effect is half-maximal. Read a high EC50 as weaker potency. `O=c1[nH]c2ccccc2cc1-c1nc2ccccc2[nH]1` returned an EC50 of 240 nM.
As to `Nc1c(-c2nc3cc(N4CCOCC4)ccc3[nH]2)c(=O)[nH]c2ccccc12`, the concentration for a half-maximal effect (EC50) was 51 nM.
The compound `CN1CCN(c2ccc3[nH]c(-c4c(N)c5ccccc5[nH]c4=O)nc3c2)CC1` displayed a 50% effective concentration (EC50) of 19 nM.
For the compound `O=c1[nH]c2ccccc2c(O)c1-c1nc2ccccc2[nH]1`, the EC50 was determined as 420 nM.
As for `Nc1c(-c2nc3ccccc3[nH]2)c(=O)[nH]c2ccccc12`, the EC50 was found to be 78 nM.
Still for that read-out and setting: the figure for `CNc1ccc2c(N)c(-c3nc4ccc(N5CCN(C)CC5)cc4[nH]3)c(=O)[nH]c2c1` is 270 nM; for `CN1CCN(c2ccc3[nH]c(-c4c(N)c5cc(N(C)C)ccc5[nH]c4=O)nc3c2)CC1` it is 2000 nM.
Still for that read-out and setting: the figure for `CN1CCN(c2ccc3nc(-c4c(N)c5cc(NCc6ccccc6)ccc5[nH]c4=O)[nH]c3c2)CC1` is 1100 nM.
The same measure, in the same setting: to `CN1CCCC(Oc2cccc3[nH]c(=O)c(-c4nc5ccccc5[nH]4)c(N)c23)C1` (configuration not stated) belongs 10 nM; to `CN1CCN(c2ccc3[nH]c(-c4c(N)c5c(Cl)cccc5[nH]c4=O)nc3c2)CC1`, 12 nM; to `Cc1cccc2[nH]c(=O)c(-c3nc4ccc(N5CCN(C)CC5)cc4[nH]3)c(N)c12`, 5 nM.
`CN(C)CC(=O)N(C)c1ccc2[nH]c(-c3c(N)c4ccccc4[nH]c3=O)nc2c1` displayed an EC50 of 24 nM.
`CN(C)c1c(-c2nc3ccccc3[nH]2)c(=O)[nH]c2ccccc12`: the EC50 was greater than 10000 nM.
In the case of `CCC1CCN(C)C(Nc2c(-c3nc4ccccc4[nH]3)c(=O)[nH]c3ccccc23)C1` (configuration not stated), the concentration for a half-maximal effect (EC50) was 72 nM.
In turn, `CN(C)[C@H]1CCN(c2ccc3[nH]c(-c4c(N)c5ccccc5[nH]c4=O)nc3c2)C1` displayed an EC50 of 42 nM.
On the same count and under the same terms, to `Cn1c(-c2c(O)c3ccccc3[nH]c2=O)nc2ccccc21` belongs greater than 10000 nM.
